The text below walks through data of patent US20230255939A1, “Antimicrobial Agent for Non-Human Animal” (ISHIHARA SANGYO KAISHA, LTD, priority 2020, published 2023).

The assay concerns Malassezia pachydermatis (ATCC14522 strain). Briefly: Malassezia otitis externa effect test (dog) (Test Example 3). The class given is in vivo, dog (Beagle). Also noted: Total score (redness, earwax, itching, rash) Immediately before treatment / Total score (redness, earwax, itching, rash) 7 Days after treatment: scale not given here. To be noted: for Microbial count (cfu/ml) 7 Days after treatment: 500 ppm agent solution for 1 minute; for Microbial count (cfu/ml) Immediately before treatment: baseline before 500 ppm agent solution; for Total score (redness, earwax, itching, rash) 7 Days after treatment: 5 mL of 500 ppm agent solution for 1 minute; for Improvement rate (%) of microbial count / Improvement rate (%) of symptom total score: 500 ppm for 1 minute, 7 days after treatment; for Total score (redness, earwax, itching, rash) Immediately before treatment: baseline 7 days after inoculation, before 500 ppm agent solution. How it is done: Test Example 3: Malassezia Otitis Externa Effect Test (Dog) Test Variety: Beagle (19 to 20-Month-Old)
Test Microbial Strain: Malassezia Pachydermatis (ATCC14522 Strain)
A colony of the Malassezia microbe pre-cultured (7 days, 30° C.) on a Sabouraud agar medium was suspended in sterilized physiological saline (microbial concentration of 1.0 × 10^6 cells/mL), and 0.1 mL of the resulting suspension was inoculated into both ears of the test animal. 7 Days after the inoculation, both ears were filled with 5 mL of an agent solution (sterilized physiological saline solution supplemented with 5% DMSO) prepared to have a concentration of the test compound of 500 ppm, and after 1 minute, thoroughly washed with sterilized physiological saline solution.
At the same time, the number of the Malassezia microbe present inside the ears of the sample was also investigated by the following method.
The surface of the ear canal was scraped three times using a cotton swab to collect the microbe, and the collected microbe was suspended in 1 mL of PBS (containing 8 g of sodium chloride, 2.9 g of disodium hydrogen phosphate, 0.2 g of potassium chloride, and 0.2 g of potassium dihydrogen phosphate in 1000 mL) supplemented with 1% v/v of Tween80 (polyoxyethylene sorbitan monooleate: manufactured by Kanto Chemical Co., Ltd.) together with the cotton swab. The resulting suspension was serially diluted 10-fold with the PBS, and 0.1 mL thereof was applied to a CHROMagar Malassezia/Candida medium (trade name; peptone, special enzyme substrate mixture, chloramphenicol, olive oil, agar) and cultured at 30° C. for 4 days. After that, the colonies having a pink to purple color were counted, the microbial count score was calculated, and the improvement rate was determined.

In the case of `Cc1ccc(-c2nc(C#N)n(O)c2Cl)cc1` [Compound No. 9, 5-chloro-1-hydroxy-4-(4-methylphenyl)-1H-imidazole-2-carbonitrile], under “left ear canal swab”, the “Microbial count (cfu/ml) 7 Days after treatment” value (from here on “Microbial count (cfu/ml) 7 Days”) is recorded as 20 cfu/ml and the “Microbial count (cfu/ml) Immediately before treatment” value is 1,100 cfu/ml. Besides, where the note is “left ear”, the “Total score (redness, earwax, itching, rash) 7 Days after treatment” value (shortened to “Total score … after treatment”) is recorded as 1; the “Improvement rate (%) of microbial count” value is 98.2%; the “Improvement rate (%) of symptom total score” value is 67%; the “Total score (redness, earwax, itching, rash) Immediately before treatment” value is 3. Where the note is “right ear canal swab”, the “Microbial count (cfu/ml) 7 Days” value stood at 30 cfu/ml and the “Microbial count (cfu/ml) Immediately before treatment” value is listed as 1,600 cfu/ml. Moreover, under “right ear”, the “Total score … after treatment” value was found to be 1; the “Improvement rate (%) of microbial count” value turned out to be 98.1%; the “Improvement rate (%) of symptom total score” value is 67%; the “Total score (redness, earwax, itching, rash) Immediately before treatment” value worked out at 3.

As for `Cc1cc(-c2nc(C#N)[nH]c2Cl)ccc1Cl` [Compound No. 7, 5-chloro-4-(4-chloro-3-methylphenyl)-1H-imidazole-2-carbonitrile], where the note is “left ear canal swab”, the “Microbial count (cfu/ml) 7 Days” value worked out at 20 cfu/ml and the “Microbial count (cfu/ml) Immediately before treatment” value amounted to 480 cfu/ml. For the setting “left ear”, the “Total score … after treatment” value stood at 0; the “Improvement rate (%) of microbial count” value amounted to 95.8%; the “Improvement rate (%) of symptom total score” value is 100%; the “Total score (redness, earwax, itching, rash) Immediately before treatment” value was determined as 3. Besides, for the setting “right ear canal swab”, the “Microbial count (cfu/ml) 7 Days” value is listed as 30 cfu/ml and the “Microbial count (cfu/ml) Immediately before treatment” value is recorded as 160 cfu/ml. Besides, where the note is “right ear”, the “Total score … after treatment” value came out at 0; the “Improvement rate (%) of microbial count” value was 81.3%; the “Improvement rate (%) of symptom total score” value was determined as 100%; the “Total score (redness, earwax, itching, rash) Immediately before treatment” value is 3.
